# Experimental data taken from patent US10781203B2, “Nontoxic compounds for the treatment and prevention of herpesvirus infections” (The Penn State Research Foundation, priority 2016, dated 2020).
# What was measured:
# [1] = test system: cytoplasmic viral assembly compartment (cVAC); assay: cVAC morphology / localization of viral and cellular markers by fluorescence microscopy; type: cell-based, human
# Description: (§1) Coverslips or chamber slides containing either uninfected or HCMV-infected cells were washed in phosphate-buffered saline (PBS) and fixed in 2% paraformaldehyde for 15 min at room temperature. Cells were blocked in PBS containing 10% human serum, 0.5% Tween-20, and 5% glycine. 0.1% Triton-X 100 was added for permeabilization. Primary and secondary antibodies as specified in the antibody section were diluted in blocking buffer. Nuclei were stained with DAPI prior to mounting with ProLong Diamond Antifade Mountant (ThermoScientific). For live-cell experiments using the pp28-mCherry virus, cells were grown on glass bottom microwell dishes (MatTek Corporation) and nuclei were stained with NucBlue Live Cell Stain ReadyProbes reagent (ThermoScientific). All images were acquired using a C2+ Confocal Microscope System (Nikon). Images were processed using NIS elements software. Images shown are volume renderings of Z-stacks.
# STX5 = target: T1, STX5 (Homo sapiens, UniProt Q13190); assay: Immunofluorescence detection of STX5 localization; type: cell-based
# T1 construct: immunofluorescence detection of STX5 in uninfected (Mock) and HCMV-infected cells (96 hpi) in the presence of DMSO control or Retro94; endogenous in cells; host or cells: uninfected (mock) or HCMV-infected cells
# T1 sequence (Q13190 1-355): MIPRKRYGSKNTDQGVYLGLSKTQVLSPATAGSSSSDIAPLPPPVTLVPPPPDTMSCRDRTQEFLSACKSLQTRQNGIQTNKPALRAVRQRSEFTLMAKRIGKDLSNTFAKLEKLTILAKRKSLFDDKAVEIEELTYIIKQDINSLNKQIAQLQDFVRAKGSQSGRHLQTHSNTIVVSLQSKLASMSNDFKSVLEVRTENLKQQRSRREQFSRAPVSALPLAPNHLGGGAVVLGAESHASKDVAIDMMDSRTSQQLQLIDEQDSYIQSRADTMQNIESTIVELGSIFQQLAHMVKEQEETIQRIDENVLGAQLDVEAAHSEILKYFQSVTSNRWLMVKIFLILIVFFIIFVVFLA
# Description: as §1
# cells = assay: Cell viability after extended treatment (trypan blue, bright field); type: cell-based
# Source text: FIG. 3A is a growth curve analysis of HCMV (MOI=3) in untreated (WT), vehicle treated (DMSO) or Retro94-treated cells. Samples were harvested at 24, 48, 72, 96, 120 and 144 hpi. […] Nuclei labeled with DAPI (blue). Scale bars: 10 μm. FIG. 3C is a growth curve analysis of HCMV (MOI=0.05) in DMSO control (DMSO) or Retro94-treated cells. Samples were harvested at 3, 6, 9, 12 and 15 dpi. Asterisks indicate change of media with fresh Retro94. […] Bright field images of cell monolayers at 4 days post treatment are shown below graph. Brefeldin A was included as a positive control for cell death. Values in FIGS. 3A and 3C are from one representative experiment.
# Normal human dermal fibroblasts, HDFs (Cell Applications Inc. 106-05N), and normal human lung fibroblasts, MRC-5 cells (ATCC CCL-171) were maintained in Dulbecco's modified Eagle's medium (DMEM) (Lonza). Human retinal pigmented epithelial cells (ARPE-19), maintained in DMEM/Ham's F12 (1:1 mix) (Lonza), human embryonic lung fibroblasts (HEL) and mouse embryonic fibroblasts (NIH 3T3), maintained in DMEM (Lonza) were obtained (Spector D J, Yetming K. Virology. 2010; 407(2):171-7; Spector D J. Virology. 2015, 476:345-54). All media was supplemented with 10% fetal bovine serum, 100 U/ml penicillin and 100 µg/ml streptomycin, and 2 mM GlutaMAX (Gibco). Cells were maintained at 37° C. with 5% CO2. […]
# [2] = test system: cytoplasmic viral assembly compartment (cVAC); assay: Electron microscopy of HCMV-infected cells; type: cell-based, human; conditions: MOI=3; 96 hpi; treated at 2 hpi
# Description: Cells were seeded on 60 mm Permanox tissue culture dishes (Nalge Nunc International). Infections were done at an MOI of 3 for 96 hours. Cells were first washed with PBS 3× followed by fixation for 1 hour at 4° C. in fixation buffer (0.5% [vol/vol] glutaraldehyde, 0.04% [wt/vol] paraformaldehyde, 0.1 M sodium cacodylate). Cells were then processed for EM by the Microscopy Imaging Facility (Pennsylvania State University College of Medicine). Briefly, the fixed samples were washed three times with 0.1 M sodium cacodylate, followed by postfixation in 1% osmium −1.5% potassium ferrocyanide overnight at 4° C. Samples were then washed 3 times in 0.1 M sodium cacodylate, dehydrated with ethanol, and embedded in Epon 812 for staining and sectioning. Images were acquired using a JEOL JEM-1400 Digital Capture transmission electron microscope.
# MCMV = assay: Viral titers of MCMV-infected fibroblasts; type: cell-based, mouse; conditions: treated at 2 hpi; 6 dpi (FIG. 7C)
# Description: FIG. 7A is a graph showing viral titers at 15 dpi of fibroblasts infected with various strains of HCMV (MOI=0.05) and treated with DMSO or Retro94 at 2 hpi. Media was changed and fresh Retro94 was added at 6 dpi. Bright field images representing CPE of above infections shown at right. FIG. 7B show HCMV-infected ARPE-19 cells (TB40, MOI=3) at 21 dpi treated with DMSO or Retro94 ([…]). Infected cells detected by monitoring mCherry (red) expressed by TB40 virus. Scale bars: 1 mm. The table below images show number of foci detected, average area and standard error of the mean. P<0.00001. […]
# For MCMV growth curve analysis, samples were titrated on NIH 3T3 cells and titers were calculated using the 50% tissue culture infective dose method. Both HCMV virus stocks and samples for growth curves were titrated by serial dilutions on MRC5 cells and quantified by the immunological detection of immediate-early proteins as previously described (Britt W J. Human cytomegalovirus: propagation, quantification, and storage. Curr Protoc Microbiol. 2010; Chapter 14: Unit 14E.3). The numbers of stained nuclei were acquired on a Nikon Eclipse Ti Inverted microscope and fluorescent nuclei were quantified using the NIS Elements Software. […] The number and size of foci were quantified using NIS Elements software.
structure (smiles),measurement,setting,value
"Cc1nc(-c2ccc(C3N(C)c4ccccc4C(=O)N3c3ccccc3)s2)cs1 (stereo not drawn) [Retro94, 1-Methyl-2-(5-(2-methylthiazol-4-yl)thiophen-2-yl)-3phenyl-2,3-dihydroquinazolin-4(1H)-one]","localization of viral proteins pp28, pp150 and glycoprotein B","[1]; 96 hpi, 10 μM",dispersed throughout the cytoplasm and were no longer present in the cVAC
same,localization of GS27 and GS28,"[1]; MOI=3, 96 hpi",mostly remained in a perinuclear localization
same,"localization of markers of Golgi (GM130), TGN (p230) and endosomes (EEA1)","[1]; MOI=3, 96 hpi",retained their perinuclear localization
same,normal cVAC morphology,"[1]; MOI=3, 96 hpi",did not form
same,cVAC as detected by pp28-mCherry,"[1]; added at 2 or 24 hpi, imaged at 96 hpi",no area representing a cVAC was detected
same,pp28 localization (pp28-mCherry),"[1]; added at 48 hpi, imaged at 96 hpi",largely dispersed throughout the cell
same,perinuclear pp28 regions reminiscent of the cVAC,"[1]; added at 72 hpi, imaged at 96 hpi",more prominent
same,STX5 localization,"STX5; HCMV-infected cells, 96 hpi",dispersed throughout the cell and was not located to the cVAC ring
same,STX5 localization,STX5; uninfected cells,lost its Golgi-localization
same,effect on cell viability or cell morphology,cells,no effect
same,capsids in perinuclear region (EM),[2],largely devoid of capsids at all stages of maturation
same,decrease of MCMV titer,MCMV,~3 logs
